Measured values from US20260151518A1, “LEUKOCYTE-SPECIFIC CELL PENETRATING MOLECULES” (Amytrx Therapeutics, Inc., priority 2021, published 2026).
Marks after values point to notes of the source that are not given here.

Test: Tissue distribution of radioactivity by quantitative whole body autoradiography (QWBA) after single intravenous [3H]-AMTX-100
Format: in vivo, rat
Details: single intravenous, 5 mg/kg, rat
Protocol: The formulation was administered directly into a tail vein. The dose volume (2.5 mL/kg) was used to achieve a dose level of 5 mg/kg and radioactive dose levels of 100 μCi/kg (Phase 1) and 500 μCi/kg (Phase 2). The dose formulation was stirred continuously throughout the dosing procedure.
Quantitative Whole Body Autoradiography (QWBA). The frozen carcasses were subjected to QWBA. Sections were presented at up to five different levels of the rat body to include between 30 and 40 tissues (subject to presence of sufficient radioactivity).
The freeze-dried whole body autoradiography sections were exposed to phosphor-storage imaging plates and incubated at ambient temperature in the dark for seven days. Calibrated autoradiographic blood standards containing known amounts of radioactivity (nCi/g) were included in each exposure.
Distribution of radioactivity in tissues and [^3H]-blood standards (prepared and validated at Pharmaron UK Ltd.) was determined and quantified using a Fuji FLA-5100 fluorescent image analyzing system and associated Tina (version 2.09) and SeeScan (version 2.0) software. For each exposure, a standard curve was produced in SeeScan using the data from the autoradiographic blood standards from which tissue concentrations of radioactivity (μg equivalents/g) were determined.
A representative background radioactivity measurement for each exposure plate used was also taken. The number of measurements for each particular tissue was determined by the number of levels it appeared in. Multiple measurements were therefore performed for larger tissues that appeared in more than one level (e.g. liver), with only one measurement obtained for small tissues (e.g. thyroid gland). The limit of accurate quantification was considered to be the lowest [^3H]-blood standard visible.
Three of the carcasses obtained from the eight male Sprague Dawley rats subjected to whole blood collection and analysis after each receiving a single intravenous administration of [^3H]-AMTX-100, were selected for QWBA analysis at each of the following time points: 10 minutes and 2 and 12 hours post-dose.
Each carcass was snap frozen by immersion in a hexane/dry ice mixture immediately after collection and was then stored at approximately −20° C., pending analysis by QWBA.

With CSCC[C@@H]1NC(=O)[C@H](CC(C)C)NC(=O)[C@H](CCCCN)NC(=O)[C@H](CCC(N)=O)CC(=O)[C@H](CCCNC(=N)N)NC(=O)[C@H](CCCCN)NC(=O)[C@H](CCCNC(=N)N)NC(=O)[C@H](CCC(N)=O)NC(=O)[C@H](C(C)C)NC(=O)[C@@H](NC(=O)[C@@H]2CCCN2C(=O)[C@H](C)NC(=O)[C@H](CC(C)C)NC(=O)[C@H](CC(C)C)NC(=O)[C@H](C)NC(=O)[C@H](CC(C)C)NC(=O)[C@H](CC(C)C)NC(=O)[C@@H](NC(=O)[C@H](C)NC(=O)[C@@H]2CCCN2C(=O)[C@H](CC(C)C)NC(=O)[C@H](CC(C)C)NC(=O)[C@H](C)NC(=O)[C@@H](NC(=O)[C@H](C)NC(=O)[C@H](C)N)C(C)C)C(C)C)CSSC[C@@H](C(=O)O)NC(=O)[C@@H]2CCCN2C1=O [[^3H]-AMTX-100] the “Concentration of radioactivity in Eye: lens” value (2 hr) was “BLQ (Below lower limit of accurate quantification (<0.36 μg equivalents/g))”, the “Concentration of radioactivity in Eye: whole” value (2 hr) was “BLQ (Below lower limit of accurate quantification (<0.36 μg equivalents/g))” and the “Concentration of radioactivity in Fat: brown” value (2 hr) was “BLQ (Below lower limit of accurate quantification (<0.36 μg equivalents/g))”. For the same compound, the “Concentration of radioactivity in Fat: white” value (2 hr) was “BLQ (Below lower limit of accurate quantification (<0.36 μg equivalents/g))”, the “Concentration of radioactivity in Forestomach mucosa” value (2 hr) was 0.57 μg equivalents/g and the “Concentration of radioactivity in Glandular stomach mucosa” value (2 hr) was 0.81 μg equivalents/g. For the same compound, the “Concentration of radioactivity in Harderian gland” value (2 hr) was 0.37 μg equivalents/g, the “Concentration of radioactivity in Kidney: cortex” value (2 hr) was 9.59 μg equivalents/g and the “Concentration of radioactivity in Kidney: medulla” value (2 hr) was 4.47 μg equivalents/g. The “Concentration of radioactivity in Kidney: whole” value (2 hr) was 7.35 μg equivalents/g, the “Concentration of radioactivity in Large intestine contents” value (2 hr) was “BLQ (Below lower limit of accurate quantification (<0.36 μg equivalents/g))” and the “Concentration of radioactivity in Large intestine mucosa” value (2 hr) was 0.63 μg equivalents/g. For the same compound, the “Concentration of radioactivity in Liver” value (2 hr) was 31.60 μg equivalents/g, the “Concentration of radioactivity in Lung” value (2 hr) was 31.90 μg equivalents/g and the “Concentration of radioactivity in Lymph node” value (2 hr) was 0.83 μg equivalents/g. For the same compound, the “Concentration of radioactivity in Muscle” value (2 hr) was “BLQ (Below lower limit of accurate quantification (<0.36 μg equivalents/g))”, the “Concentration of radioactivity in Myocardium” value (2 hr) was 0.53 μg equivalents/g and the “Concentration of radioactivity in Pancreas” value (2 hr) was 1.69 μg equivalents/g. The “Concentration of radioactivity in Pituitary gland” value (2 hr) was 1.58 μg equivalents/g, the “Concentration of radioactivity in Prostate gland” value (2 hr) was 0.83 μg equivalents/g and the “Concentration of radioactivity in Salivary gland” value (2 hr) was 0.80 μg equivalents/g. The “Concentration of radioactivity in Skin” value (2 hr) was 0.39 μg equivalents/g, the “Concentration of radioactivity in Small intestine contents” value (2 hr) was 1.23 μg equivalents/g and the “Concentration of radioactivity in Small intestine mucosa” value (2 hr) was 0.89 μg equivalents/g. The “Concentration of radioactivity in Spinal cord” value (2 hr) was “BLQ (Below lower limit of accurate quantification (<0.36 μg equivalents/g))”, the “Concentration of radioactivity in Spleen: red pulp” value (2 hr) was 11.90 μg equivalents/g and the “Concentration of radioactivity in Spleen: white pulp” value (2 hr) was 2.92 μg equivalents/g. The “Concentration of radioactivity in Spleen: whole” value (2 hr) was 41.80 μg equivalents/g, the “Concentration of radioactivity in Stomach contents” value (2 hr) was “BLQ (Below lower limit of accurate quantification (<0.36 μg equivalents/g))” and the “Concentration of radioactivity in Testis” value (2 hr) was 0.37 μg equivalents/g. The “Concentration of radioactivity in Thymus” value (2 hr) was 0.68 μg equivalents/g, the “Concentration of radioactivity in Thyroid gland” value (2 hr) was 1.29 μg equivalents/g and the “Concentration of radioactivity in Urinary bladder wall” value (2 hr) was 1.22 μg equivalents/g. The “Concentration of radioactivity in Urinary bladder contents” value (2 hr, above upper limit of accurate quantification (>153 μg equivalents/g)) was 219.00* μg equivalents/g, the “Concentration of radioactivity in Adrenal gland” value (12 hr) was 0.44 μg equivalents/g and the “Concentration of radioactivity in Blood: residual cardiac” value (12 hr) was “BLQ (Below lower limit of accurate quantification (<0.36 μg equivalents/g))”. The “Concentration of radioactivity in Bone marror” value (12 hr) was 2.18 μg equivalents/g, the “Concentration of radioactivity in Caecum contents” value (12 hr) was “BLQ (Below lower limit of accurate quantification (<0.36 μg equivalents/g))” and the “Concentration of radioactivity in Kidney: cortex” value (12 hr) was 0.61 μg equivalents/g. For the same compound, the “Concentration of radioactivity in Kidney: medulla” value (12 hr) was 0.45 μg equivalents/g, the “Concentration of radioactivity in Kidney: whole” value (12 hr) was 0.54 μg equivalents/g and the “Concentration of radioactivity in Large intestine contents” value (12 hr) was 0.36 μg equivalents/g. The “Concentration of radioactivity in Large intestine mucosa” value (12 hr) was “BLQ (Below lower limit of accurate quantification (<0.36 μg equivalents/g))”, the “Concentration of radioactivity in Liver” value (12 hr) was 8.77 μg equivalents/g and the “Concentration of radioactivity in Lung” value (12 hr) was 30.10 μg equivalents/g. The “Concentration of radioactivity in Muscle” value (12 hr) was “BLQ (Below lower limit of accurate quantification (<0.36 μg equivalents/g))”, the “Concentration of radioactivity in Pancreas” value (12 hr) was “BLQ (Below lower limit of accurate quantification (<0.36 μg equivalents/g))” and the “Concentration of radioactivity in Small intestine contents” value (12 hr) was 0.47 μg equivalents/g. For the same compound, the “Concentration of radioactivity in Small intestine mucosa” value (12 hr) was “BLQ (Below lower limit of accurate quantification (<0.36 μg equivalents/g))”, the “Concentration of radioactivity in Spleen: red pulp” value (12 hr) was 6.89 μg equivalents/g and the “Concentration of radioactivity in Spleen: white pulp” value (12 hr) was 0.89 μg equivalents/g. The “Concentration of radioactivity in Spleen: whole” value (12 hr) was 11.90 μg equivalents/g, the “Concentration of radioactivity in Testis” value (12 hr) was “BLQ (Below lower limit of accurate quantification (<0.36 μg equivalents/g))” and the “Concentration of radioactivity in Urinary bladder contents” value (12 hr) was 11.90 μg equivalents/g. For the same compound, the “Concentration of radioactivity in Urinary bladder wall” value (12 hr) was “BLQ (Below lower limit of accurate quantification (<0.36 μg equivalents/g))”.
